Assay [1] relates to UMUC3 cells. Briefly: Cell cycle analysis (flow cytometry) of UMUC3 cells. The class given is cell-based, human. The following applies: UMUC3, 48 hours; Roscovitine 10 μM, CI-1040 1 μM, Nutlin-3a 10 μM, LEE011 10 μM; 10 MOI dl703. As to the method: FIG. 10 is a bar diagram showing cell cycle distribution in UMUC3 cells, measured 48 hours post treatment, whereby the concentrations of the […] inhibitors was as follows: Roscovitine: 10 μM, CI-1040: 1 μM, Nutlin-3a: 10 μM, and LEE011: 10 μM.
For cell cycle analysis cells were seeded in 6 well plates (2.5×10E4 c/well). 8 hours before infection with dl703, cells were treated with indicated concentration of cell cycle inhibitors. After infection with 10 MOI dl703 cells were again treated for 48 hours. Untreated cells and dl703 infected cells only, served as control. 48h post infection cells were harvest by trypsinization and fixed with 80% ethanol while vortexing. To investigate the cell cycle status, fixed cells were centrifuged 5 min at RT and 300 g and ethanol was aspirated. Cells were resuspended and washed with 1% BSA-PBS (Bovine Serum Albumin) and again centrifuged. Cells were stained with EDU and cell cycle analysis were performed using the Click-iT™ Plus EdU Flow Cytometry Assay Kits, Catalog nos. C10632 from Thermo Fischer. In addition, after 3× times washing with 1% BSA/PBS cells were stained with PI (Propidium Iodine, 50 μg/ml). Measurement was directly performed after staining with a FACScalibur Flow Cytometry System. Data was analyzed with FlowJo software.
On the technique in general: In flow cytometry, cells or beads pass a laser one at a time.

The subject of assay [2] is Rb, phRB and E2F1. Briefly: Western blot of UMUC cells treated with cell cycle inhibitors. To be noted: 24 hours post-treatment, LEE-011 at 10 μM, MI-1040 at 1 μM. The format is cell-based, human. The method, then: Western Blot analysis of UMUC cells treated with indicated concentrations of CI-1040, Roscovitine, Nutlin-3a and LEE011 (Ribociclib). 1×10^6 cells were seeded in 10 cm dishes. 24 hours post-treatment proteins were isolated using 1% SDS buffer, to achieve the disruption of the nuclear membrane. All samples were drawn up several times into a syringe to disrupt the DNA and subsequently centrifuged at 30000 rpm at 4° C. for 30 minutes. The supernatant was transferred to a new reaction tube and directly used for further steps or stored at −80° C. To separate the proteins a sodium dodecyl sulfate polyacrylamide gel electrophoresis was performed. By means of electrophoresis for approximately two hours at 100V at 4° C., 40 μg of total proteins were loaded and probed against specific indicated antibodies.

Assay [3] concerns dl703. Briefly: E1A-independent viral DNA replication of dl703 (fiber qPCR). To be noted: UMUC cells, 10 μM Lee, 50 MOI dl703, 48 hours post infection. The format is cell-based, Mastadenovirus, Type C, Serotype 5. The method, then: To investigate the differences in replication of dl703 (Mantwill et al. 2013, Journal of Translational Medicine, 11, 216) under different treatment conditions, DNA-replication analysis was performed. 100,000 UMUC cells were seeded in 6-well plates and grown in DMEM medium containing 10% FCS in 5% CO2 conditions at 37° C. 24 hours post seeding cells were treated for 24 hours with 10 μM Lee (Ribociclib), 1 μM CI-1040, 10 μM Nutlin-3a and 10 μM Roscovertine and again after infection adding an appropriate amount of inhibitors to the medium. Infection with 50 MOI dl703 (Mastadenovirus, Type C, Serotype 5 with a 3.2 kb sized deletion in E1 region) took place 24 hours post treatment. After 4 and 48 hours post infection DNA were isolated and qPCR was performed using specific primers for the viral fiber gene. Fiber fwd. 5′-[…]-3′ (SEQ ID NO: 17); Fiber rev. 5′-[…]-3′ (SEQ ID NO: 18).
In general terms: In qPCR the cycle at which signal appears reflects the starting amount.

Assay [4] deals with LN229 cells. Briefly: Western blot of XVir-N-31 infected LN229 cells, LEE011 and JQ1. The format is cell-based. As to the method: 2.5×10^5 LN229 cells were seeded in 10 cm plates in DMEM medium. The following day the cells were treated with 500 nM LEE011 and 200 nM JQ1 or a combination of both. At the next morning the cells were infected with XVir-N-31 at 20 MOI. One hour after infection DMEM Medium containing the inhibitors was added on the cells. After each time point (24, 48, 72 hours) the cells were put on ice, washed twice with ice-cold PBS and 300 μl of SDS Protein Lysis Buffer was added. The cells were transferred to reaction tubes and the DNA sheared with a syringe and a needle and the supernatant transferred for further use after centrifugation. The protein concentration was measured with a BCA assay and samples with 4× Lämmli:DTT 6:1 and a concertation of 20 μg were produced and transferred to a 10% SDS gel. The gel electrophoresis started at 90V and was increased to 150V after the ladder started to separate. The proteins on the gel were blotted to a membrane for 2 hours at 100V and blocked in 5% milk in TBS-T for 1 hour at RT. After washing in TBS-T, the first antibody was added according to the manufacturer's information over night at 4° C. The used antibodies were directed to GAPDH, E1A, DBP, E2F1, Rb, pRb for all time points, and caspase 3 and the full length and cleaved version of PARP additionally for the 72 hours samples. The next day, the washing was repeated and the secondary antibody added for 1 hour at RT. Following the washing, ECL was used to image the chemiluminescence by the ChemiDoc™ MP Imaging System.
On the technique in general: Immunoblotting shows a protein as a band on a membrane.

Assay [5] has as its system U87 cells, LN229 cells or T98G cells. Nature of the assay: SRB cell survival in glioblastoma cells, XVir-N-31, JQ1 and LEE011. The format is cell-based. To be noted: all three glioblastoma cell lines. The method, then: 2×10^4 cells (U87 cells, LN229 cells or T98G cells) were seeded in 12 well plates in DMEM medium and inhibitor treated at the next day. 48 hours post seeding the cells were infected with XVir-N-31. After 4 days the cells were fixated using 10% TCA. The plates were stained using a 0.1% SRB solution. The surplus was removed and the plates were washed with 1% acetic acid. After removing the acetic acid, the plates were air dried overnight. The SRB was solved in 1 ml of a 10 mM Tris Base solution and a 1:10 dilution was measured using a photometer at 560 nm.

The mark [6] stands for this setting: LN229, with XVir-N-31, 48 hours post infection.
Where [7] appears, read: LN229, with XVir-N-31, 72 hours post infection.

Results on one compound are retold here after patent US20220354911A1, “TREATMENT OF TUMORS BY A COMBINATION OF AN ONCOLYTIC ADENOVIRUS, A CDK4/6 INHIBITOR AND A FURTHER THERAPEUTICALLY ACTIVE AGENT” (KLINIKUM RECHTS DER ISAR DER TECHNISCHEN UNIVERSITÄT MÜNCHEN, priority 2019, published 2022).

As for `CN(C)C(=O)c1cc2cnc(Nc3ccc(N4CCNCC4)cn3)nc2n1C1CCCC1` [LEE011], in assay [1], the cell cycle distribution entry is recorded as “clear G1-arrest”. Further, the “Rb, phRB and E2F1 expression” value in assay [2] is listed as “induced inhibition”. Also, the “increase of viral DNA replication of dl703” value in assay [3] is reported as ~100 fold. The “viral proteins E1A and DBP” value is “increased” in assay [4] (LN229, XVir-N-31 MOI 20, 500 nM LEE011 or/and 200 nM JQ-1, 24 hours post infection); “increased” in assay [4] (LN229, XVir-N-31 MOI 20, 500 nM LEE011 or/and 200 nM JQ-1, 48 hours post infection); “increased” in assay [4] (LN229, XVir-N-31 MOI 20, 500 nM LEE011 or/and 200 nM JQ-1, 72 hours post infection). In addition, the “cellular proteins Rb and pRb” value in assay [4] (LN229, with XVir-N-31, 24 hours post infection) is “remained inhibited”; in assay [4] (setting [6]), “remained inhibited”. The E2F-1 result in assay [4] (setting [6]) was “stabilized”. Moreover, the E2F1 entry in assay [4] (setting [7]) is on record as “enhanced”. In assay [4] (setting [7]), the “cellular protein Rb” value is recorded as “decreased”. The “presence of cleaved PARP” value in assay [4] (XVir-N-31 infected LN229 cells, 72 hours post infection) is “increased”. Moreover, the “cell killing on addition of LEE011 to JQ1 and XVir-N-31” value in assay [5] is recorded as “increased even further”.
